From US7776847B2, “Benzisothiazoles useful for treating or preventing HCV infection” (priority 2005, dated 2010)

Test system: HCV replicon
Test: HCV replicon luciferase reporter assay
Type: cell-based
Conditions: Hepatitis C virus, Table 5; read-out: IC50
Description: The inhibitory activity of certain exemplary compounds of the invention was confirmed using an HCV replicon assay. The HCV replicon can include such features as the HCV IRES, the HCV 3′ untranslated region, selected HCV genes encoding HCV polypeptides, selectable markers, and a reporter gene such as luciferase, GFP, etc. In the assay, actively dividing replicon-comprising cells were seeded at a density of between about 5,000 and 7,500 cells/well onto 96 well plates (about 90 μl of cells per well) and incubated at 37° C. and 5% CO2 for 24 hours. Then, the test compound (in a volume of about 10 μL) was added at various concentrations to each well and the cells were incubated for an additional 24-48 hours. The cells were harvested, and HCV replication or translation was monitored via a reporter assay, e.g., a luciferase reporter assay. The media was aspirated from each cell and Bright-Glo ([…].) luciferase assay reagents were added to each well according to the manufacturer's instructions. In this assay, the amount of test compound that yielded a 50% reduction in luciferase activity (IC50) was determined.

| SMILES | IC50 |
| --- | --- |
| COC(=O)c1cnc(NCCCNc2nsc3ccccc23)cc1C(F)(F)F [Compound 284, methyl 6-(3-(benzo[d]isothiazol-3-ylamino)propylamino)-4-(trifluoromethyl)nicotinate] | < 5 µM |
| COc1ccc(C(=O)NCCCNc2nsc3ccccc23)cc1OC1CCCC1 [Compound 286, N-(3-(benzo[d]isothiazol-3-ylamino)propyl)-3-(cyclopentyloxy)-4-methoxybenzamide] | < 5 µM |
| Brc1ccc(CNCCCNc2nsc3ccccc23)cc1 [Compound 287, N^1-(benzo[d]isothiazol-3-yl)-N^3-(4-bromobenzyl)propane-1,3-diamine] | < 5 µM |
| CCCCc1ccc(CNCCCNc2nsc3ccccc23)cc1 [Compound 288, N^1-(benzo[d]isothiazol-3-yl)-N^3-(4-butylbenzyl)propane-1,3-diamine] | < 5 µM |
| O=C(NCCCNc1nsc2ccccc12)c1ccc(Br)cc1 [Compound 289, N-(3-(benzo[d]isothiazol-3-ylamino)propyl)-4-bromobenzamide] | < 5 µM |
| CCCNc1ccc(C(=O)NCCCNc2nsc3ccccc23)cc1 [Compound 290, N-(3-(benzo[d]isothiazol-3-ylamino)propyl)-4-(propylamino)benzamide] | < 5 µM |
| COc1ccc(-c2ccc(CNCCCNc3nsc4ccccc34)cc2)cc1 [Compound 291, N^1-(benzo[d]isothiazol-3-yl)-N^3-((4′-methoxybiphenyl-4-yl)methyl)propane-1,3-diamine] | < 5 µM |
| COc1ccc(-c2ccc(CNCCCNc3nsc4ccccc34)cc2)cc1OC [Compound 292, N^1-(benzo[d]isothiazol-3-yl)-N^3-((3′,4′-dimethoxybiphenyl-4-yl)methyl)propane-1,3-diamine] | < 5 µM |
| CCCCc1ccc(CN(CCCNc2nsc3ccccc23)C(=O)c2ccccn2)cc1 [Compound 293, N-(3-(benzo[d]isothiazol-3-ylamino)propyl)-N-(4-butylbenzyl)picolinamide] | < 5 µM |
| COc1ccc(Cl)cc1-c1ccc(CNCCCNc2nsc3ccccc23)cc1 [Compound 294, N^1-(benzo[d]isothiazol-3-yl)-N^3-((5′-chloro-2′-methoxybiphenyl-4-yl)methyl)propane-1,3-diamine] | < 5 µM |
| CCCCc1ccc(NCCCNc2nsc3ccccc23)cc1 [Compound 295, N^1-(benzo[d]isothiazol-3-yl)-N^3-(4-butylphenyl)propane-1,3-diamine] | < 5 µM |
| CCN1CCN(c2ccc(C(=O)NCCCNc3nsc4ccccc34)cc2)CC1 [Compound 296, N-(3-(benzo[d]isothiazol-3-ylamino)propyl)-4-(4-ethylpiperazin-1-yl)benzamide] | < 5 µM |
| O=C(NCCCNc1nsc2ccccc12)c1ccc(NCc2ccccn2)cc1 [Compound 297, N-(3-(benzo[d]isothiazol-3-ylamino)propyl)-4-(pyridin-2-ylmethylamino)benzamide] | < 5 µM |
| CC(C)Nc1ccc(C(=O)NCCCNc2nsc3ccccc23)cc1 [Compound 298, N-(3-(benzo[d]isothiazol-3-ylamino)propyl)-4-(isopropylamino)benzamide] | < 5 µM |
| Brc1cccc(CNCCCNc2nsc3ccccc23)c1 [Compound 299, N^1-(benzo[d]isothiazol-3-yl)-N^3-(3-bromobenzyl)propane-1,3-diamine] | < 5 µM |
| COc1ccc(-c2cccc(CNCCCNc3nsc4ccccc34)c2)cc1 [Compound 300, N^1-(benzo[d]isothiazol-3-yl)-N^3-((4′-methoxybiphenyl-3-yl)methyl)propane-1,3-diamine] | < 5 µM |
| COc1ccc(-c2cccc(CNCCCNc3nsc4ccccc34)c2)cc1OC [Compound 301, N^1-(benzo[d]isothiazol-3-yl)-N^3-((4′,5′-dimethoxybiphenyl-3-yl)methyl)propane-1,3-diamine] | < 5 µM |
| COc1ccc(Cl)cc1-c1cccc(CNCCCNc2nsc3ccccc23)c1 [Compound 302, N^1-(benzo[d]isothiazol-3-yl)-N^3-((3′-chloro-6′-methoxybiphenyl-3-yl)methyl)propane-1,3-diamine] | < 5 µM |
| Oc1ccc(Br)cc1CNCCCNc1nsc2ccccc12 [Compound 303, 2-((3-(benzo[d]isothiazol-3-ylamino)propylamino)methyl)-4-bromophenol] | < 5 µM |
| COc1ccc(CNCCCNc2nsc3ccccc23)cc1O [Compound 304, 5-((3-(benzo[d]isothiazol-3-ylamino)propylamino)methyl)-2-methoxyphenol] | < 5 µM |

| SMILES | IC50 |
| --- | --- |
| c1ccc(CN2CCCC(NCCCNc3nsc4ccccc34)C2)cc1 (stereo not shown) [Compound 306, N^1-(benzo[d]isothiazol-3-yl)-N^3-(1-benzylpiperidin-3-yl)propane-1,3-diamine] | < 5 µM |
| CC(C)(C)OC(=O)N1CCC(NCCCNc2nsc3ccccc23)CC1 [Compound 307, tert-butyl 4-(3-(benzo[d]isothiazol-3-ylamino)propylamino)piperidine-1-carboxylate] | < 5 µM |
| c1cncc(CNCCCNc2nsc3ccccc23)c1 [Compound 308, N^1-(benzo[d]isothiazol-3-yl)-N^3-(pyridin-3-ylmethyl)propane-1,3-diamine] | > 5 µM |
| c1ccc(CNCCCNc2nsc3ccccc23)nc1 [Compound 309, N^1-(benzo[d]isothiazol-3-yl)-N^3-(pyridin-2-ylmethyl)propane-1,3-diamine] | > 5 µM |
| CCCCOc1cc(C(=O)NCCNc2nsc3ccc(NCCC)cc23)ccc1OC [Compound 310, 3-butoxy-4-methoxy-N-(2-(5-(propylamino)benzo[d]isothiazol-3-ylamino)ethyl)benzamide] | < 5 µM |
| O=C1NC(CNc2nsc3ccccc23)C(=O)N1c1ccc(I)cc1 (stereo not shown) [Compound 311, 5-((benzo[d]isothiazol-3-ylamino)methyl)-3-(4-iodophenyl)imidazolidine-2,4-dione] | > 5 µM |
| COc1ccc(-c2ccccc2CNCCCNc2nsc3ccccc23)cc1 [Compound 312, N^1-(benzo[d]isothiazol-3-yl)-N^3-((4′-methoxybiphenyl-2-yl)methyl)propane-1,3-diamine] | < 5 µM |
| COc1ccc(-c2ccccc2CNCCCNc2nsc3ccccc23)cc1OC [Compound 313, N^1-(benzo[d]isothiazol-3-yl)-N^3-((3′,4′-dimethoxybiphenyl-2-yl)methyl)propane-1,3-diamine] | < 5 µM |
| COc1ccc(-c2ccc(CN(CCCNc3nsc4ccccc34)C(=O)N3CCOCC3)cc2)cc1 [Compound 314, N-(3-(benzo[d]isothiazol-3-ylamino)propyl)-N-((4′-methoxybiphenyl-4-yl)methyl)morpholine-4-carboxamide] | < 5 µM |
| COc1ccc(-c2ccc(CN(CCCNc3nsc4ccccc34)C(=O)N(C)C)cc2)cc1 [Compound 315, 1-(3-(benzo[d]isothiazol-3-ylamino)propyl)-1-((4′-methoxybiphenyl-4-yl)methyl)-3,3-dimethylurea] | < 5 µM |
| COc1ccc(-c2ccc(CN(CCCNc3nsc4ccccc34)S(=O)(=O)c3cn(C)c(C)n3)cc2)cc1 [Compound 316, N-(3-(benzo[d]isothiazol-3-ylamino)propyl)-N-((4′-methoxybiphenyl-4-yl)methyl)-1,2-dimethyl-1H-imidazole-4-sulfonamide] | < 5 µM |
| COC(=O)c1ccc(S(=O)(=O)N(CCCNc2nsc3ccccc23)Cc2ccc(-c3ccc(OC)cc3)cc2)n1C [Compound 317, methyl 5-(N-(3-(benzo[d]isothiazol-3-ylamino)propyl)-N-((4′-methoxybiphenyl-4-yl)methyl)sulfamoyl)-1-methyl-1H-pyrrole-2-carboxylate] | < 5 µM |
| COc1ccc(-c2ccc(CN(CCCNc3nsc4ccccc34)C(=O)CC#N)cc2)cc1 [Compound 319, N-(3-(benzo[d]isothiazol-3-ylamino)propyl)-2-cyano-N-((4′-methoxybiphenyl-4-yl)methyl)acetamide] | < 5 µM |
| COc1ccc(-c2ccc(CN(CCCNc3nsc4ccccc34)C(=O)CC3CCCN3)cc2)cc1 (stereo not shown) [Compound 320, N-(3-(benzo[d]isothiazol-3-ylamino)propyl)-N-((4′-methoxybiphenyl-4-yl)methyl)-2-(pyrrolidin-2-yl)acetamide] | < 5 µM |
| CCCCc1ccc(C(=O)NCCCNc2n[s+]([O-])c3ccccc23)cc1 (stereo not shown) [Compound 321, 4-butyl-N-{3-[(1-oxido-1,2-benzisothiazol-3-yl)amino]propyl}benzamide] | > 5 µM |
| CCCCc1ccc(C(=O)NCCCNC2=NS(=O)(=O)c3ccccc32)cc1 [Compound 322, 4-butyl-N-{3-[(1,1-dioxido-1,2-benzisothiazol-3-yl)amino]propyl}benzamide] | > 5 µM |
| COc1ccc(-c2ccc(CNCCCNC3=NS(=O)(=O)c4ccccc43)cc2)cc1 [Compound 324, N-(1,1-dioxido-1,2-benzisothiazol-3-yl)-N′-[(4′-methoxybiphenyl-4-yl)methyl]propane-1,3-diamine] | > 5 µM |
| O=S(=O)(NCCCNc1nsc2ccccc12)c1ccc(I)cc1 [Compound 325, N-(3-(benzo[d]isothiazol-3-ylamino)propyl)-4-iodobenzenesulfonamide] | < 5 µM |
| FC(F)(F)c1ccccc1CNCCCNc1nsc2ccccc12 [Compound 326, N^1-(benzo[d]isothiazol-3-yl)-N^3-(2-(trifluoromethyl)benzyl)propane-1,3-diamine] | < 5 µM |
| COc1cc(CNCCCNc2nsc3ccccc23)c(OCc2ccccc2)cc1OC [Compound 327, N^1-(benzo[d]isothiazol-3-yl)-N^3-(2-(benzyloxy)-4,5-dimethoxybenzyl)propane-1,3-diamine] | < 5 µM |
